Reference: US10857105B2, “Compounds and compositions for intracellular delivery of therapeutic agents” (ModernaTX, Inc., priority 2017, dated 2020)

Key:
[1] = Particle size and polydispersity index of nanoparticle compositions (Zetasizer Nano ZS); format: physicochemical
Protocol: A Zetasizer Nano ZS (Malvern Instruments Ltd, Malvern, Worcestershire, UK) can be used to determine the particle size, the polydispersity index (PDI) and the zeta potential of the nanoparticle compositions in 1×PBS in determining particle size and 15 mM PBS in determining zeta potential.
(§1) Initial studies were performed to compare the delivery efficiency of nanoparticle compositions including various compounds according to Formula (I), (IA), (IB), (II), (IIa), (IIb), (IIc), (IId), (IIe), (IIf), (IIg), or (III). The cationic lipid MC3 is a current standard in the art. Accordingly, the standard MC3 formulation including about 50 mol % MC3, about 10 mol % DSPC, about 38.5 mol % cholesterol, and about 1.5 mol % PEG-DMG was used as a basis for this study. Nanoparticle compositions including DSPC as a phospholipid, cholesterol as a structural lipid, PEG-DMG as a PEG lipid, an RNA, and a compound according to Formula (I), (IA), (IB), (II), (IIa), (IIb), (IIc), (IId), (IIe), (IIf), (IIg), or (III) selected from Compounds 1-159, 168-170, and 173-175 were prepared according to or via methods similar to those described in Examples 1 and 2. The ratios of the lipids were 50:10:38.5:1.5 mol % for the lipid according to Formula (I), (IA), (IB), (II), (IIa), (IIb), (IIc), (IId), (IIe), (IIf), (IIg), or (III):DSPC:cholesterol:PEG-DMG. The RNA used was an mRNA encoding luciferase (Luc) or hEPO, wherein each uridine was replaced N1-methyl pseudouridine. Tables 1A-1E summarize the content and characteristics of the formulations.

[2] = Encapsulation efficiency of RNA in nanoparticle compositions (RIBOGREEN assay); format: physicochemical
Protocol: For nanoparticle compositions including an RNA, a QUANT-IT™ RIBOGREEN® RNA assay (Invitrogen Corporation Carlsbad, Calif.) can be used to evaluate the encapsulation of an RNA by the nanoparticle composition. The samples are diluted to a concentration of approximately 5 μg/mL, in a TE buffer solution (10 mM Tris-HCl, 1 mM EDTA, pH 7.5). 50 μL of the diluted samples are transferred to a polystyrene 96 well plate and either 50 μL of TE buffer or 50 μL of a 2% Triton X-100 solution is added to the wells. The plate is incubated at a temperature of 37° C. for 15 minutes. The RIBOGREEN® reagent is diluted 1:100 in TE buffer, and 100 μL of this solution is added to each well. The fluorescence intensity can be measured using a fluorescence plate reader (Wallac Victor 1420 Multilabel Counter; Perkin Elmer, Waltham, Mass.) at an excitation wavelength of, for example, about 480 nm and an emission wavelength of, for example, about 520 nm. The fluorescence values of the reagent blank are subtracted from that of each of the samples and the percentage of free RNA is determined by dividing the fluorescence intensity of the intact sample (without addition of Triton X-100) by the fluorescence value of the disrupted sample (caused by the addition of Triton X-100).
as §1

modified luciferase = experiment: Luciferase expression in liver, lung, spleen and femur 6 hours after intravenous administration to mice; format: in vivo; conditions: 6 hours after intravenous 0.5 mpk, mice
Protocol: The efficacy of the nanoparticle compositions presented in Table 1A was further evaluated by measuring the expression of modified luciferase in the liver, lung, spleen, and femur upon administration of a given composition. Formulations were administered intravenously to mice (n=3) at a dosage of 0.5 mpk and bioluminescence measured after 6 hours. The standard MC3 formulation and a PBS control were also tested. […] Flux in the liver was lowest for compositions including Compounds 58, 59, 137, and 141. Flux in the spleen was highest for compositions including Compounds 4, 7, 33, 34, 48, 53, 108, 129, 130, and 148, and lowest for compositions including Compounds 9, 59, 124, and 141.

[3] = Table 1A, lipid:DSPC:cholesterol:PEG-DMG 50:10:38.5:1.5 mol %
[4] = Table 1B, formulated with hEPO mRNA

Row | Size [1, 3] [nm] | EE [2, 3] [%] | Structure (SMILES) | Total Flux, Liver (modified luciferase) | Total Flux, Lung (modified luciferase) | Total Flux, Spleen (modified luciferase) | Size [1, 4] [nm] | EE [2, 4] [%]
1 | 65.7 | 94.8 | CCCCCCCCCOC(=O)CCCCCCCN(CCCCCCCC(=O)OC(CCCCCCCC)CCCCCCCC)CCCOC(=O)NC [Compound 175, Heptadecan-9-yl 8-((3-((methylcarbamoyl)oxy)propyl)(8-(nonyloxy)-8-oxooctyl)amino)octanoate] |  |  |  |  | 
2 | 71.6 | 94.7 | CCCCCCCCCOC(=O)CCCCCCCN(CCCCCCCC(=O)OC(CCCCCCCC)CCCCCCCC)CCCn1ccnn1 [Compound 179, Heptadecan-9-yl 8-((3-(1H-1,2,3-triazol-1-yl)propyl)(8-(nonyloxy)-8-oxooctyl)amino)octanoate] |  |  |  |  | 
3 | 99.2 | 95.4 | CCCCCCCCCOC(=O)CCCCCCCN(CCO)CCCCCCCC(=O)OC1CCCCCCCCCCCCCC1 [Compound 81, Cyclopentadecyl 8-((2-hydroxyethyl)(8-(nonyloxy)-8-oxooctyl)amino)octanoate] | 2.74E+08 | 6.23E+06 | 4.49E+07 |  | 
4 | 86.3 | 77.2 | CCCCCCCCCCCOC(=O)CCCCCN(CCO)CCCCCCCC(=O)N(CCCCCCCC)CCCCCCCC [Compound 129, Undecyl 6-((8-(dioctylamino)-8-oxooctyl)(2-hydroxyethyl)amino)hexanoate] | 6.65E+08 | 9.89E+06 | 5.09E+08 |  | 
5 | 75.5 | 92.89 | CCCCCCCCCOC(=O)CCCCCCCN(CCCCCCCC(=O)OC(CCCCCCCC)CCCCCCCC)CCCN(C)S(C)(=O)=O [Compound 173, Heptadecan-9-yl 8-((3-(N-methylmethylsulfonamido)propyl)(8-(nonyloxy)-8-oxooctyl)amino)octanoate] |  |  |  |  | 
6 | 90.9 | 79.6 | CCCCCCCCCOC(=O)CCCCCCCN(CCCCCCCC(=O)OC(CCCCCCCC)CCCCCCCC)CCC(=O)O [Compound 125, 3-((8-(Heptadecan-9-yloxy)-8-oxooctyl)(8-(nonyloxy)-8-oxooctyl)amino)propanoic acid] |  |  |  |  | 

Further lines, the molecule ahead of its results:

Row | Structure (SMILES) | Size [1, 3] [nm] | EE [2, 3] [%] | Total Flux, Liver (modified luciferase) | Total Flux, Lung (modified luciferase) | Total Flux, Spleen (modified luciferase) | Size [1, 4] [nm] | EE [2, 4] [%]
7 | CCCCCCCCCOC(=O)CCCCCCCN(CCO)CCCCCCCC(=O)OC1CCC(C2CCCCC2)CC1 (stereo not drawn) [Compound 80, [1,1′-Bi(cyclohexan)]-4-yl 8-((2-hydroxyethyl)(8-(nonyloxy)-8-oxooctyl)amino)octanoate] | 118 | 90.7 | 1.09E+07 | 8.97E+04 | 4.71E+06 |  | 
8 | CCCCCCCCC(CCCCCCCC)OC(=O)CCCCCCCN(CCO)CCCC(=O)OCCCCCCC [Compound 54, heptadecan-9-yl 8-((4-(heptyloxy)-4-oxobutyl)(2-hydroxyethyl)amino) octanoate] | 112.9 | 96.71 | 5.57E+09 | 1.12E+07 | 1.64E+08 |  | 
9 | CCCCCCCCCOC(=O)CCCCCCCN(CCO)CCCCCCCC(=O)OC(CCCCCC)CCCCCC [Compound 56, nonyl 8-((2-hydroxyethyl)(8-oxo-8-(tridecan-7-yloxy)octyl)amino) octanoate] | 112.1 | 95.18 | 1.04E+09 | 4.62E+06 | 1.98E+08 |  | 
10 | CCCCCCCCCOC(=O)CCCCCCCN(CCCCCCCC(=O)OC(CCCCCCCC)CCCCCCCC)CCCC(N)=O [Compound 243, Heptadecan-9-yl 8-((4-amino-4-oxobutyl)(8-(nonyloxy)-8-oxooctyl)amino)octanoate] |  |  |  |  |  | 90.6 | 99.4
11 | CCCCCCCCCOC(=O)CCCCCCCN(CCO)CCCCCCCC(=O)OC1CCC(CCCCC)CC1 (stereo not drawn) [Compound 79, Nonyl 8-((2-hydroxyethyl)(8-oxo-8-((4-pentylcyclohexyl)oxy)octyl)amino)octanoate] | 93.7 | 89.1 | 3.15E+06 | 6.13E+04 | 6.45E+05 |  | 
12 | CCCCCCCCCOC(=O)CCCCCCCN(CCO)CCCCCCCC(=O)OC(CCC)CCC [Compound 58, heptan-4-yl 8-((2-hydroxyethyl)(8-(nonyloxy)-8-oxooctyl)amino) octanoate] | 130.8 | 92.54 | 8.71E+04 | 1.21E+04 | 2.38E+05 |  | 
13 | CCCCCCCCC(CCCCCCCC)OC(=O)CCCCCCCN(CCO)CCCC(=O)OCCCCC [Compound 52, heptadecan-9-yl 8-((2-hydroxyethyl)(4-oxo-4-(pentyloxy)butyl)amino) octanoate] | 130.5 | 93.25 | 5.86E+08 | 2.80E+06 | 8.30E+07 |  | 
14 | CCCCCCCCCOC(=O)CCCCCCCN(CCO)CCCCCCCC(=O)OC(CCCCC)CCCCCCCC (stereo not drawn) [Compound 33, nonyl 8-((2-hydroxyethyl)(8-oxo-8-(tetradecan-6-yloxy)octyl)amino) octanoate] | 107.3 | 95.66 | 1.78E+10 | 2.92E+07 | 3.77E+08 |  | 
15 | CCCCCCCCCN(CCCCCCCC(=O)OC(CCCCCCCC)CCCCCCCC)CCCn1ccnc1 [Compound 8, Heptadecan-9-yl 8-((3-(1H-imidazol-1-yl)propyl)(nonyl)amino)octanoate] | 121.0 | 95.8 | 7.87E+08 | 4.06E+06 | 1.51E+08 |  | 
16 | CCCCCCCCCOC(=O)CCCCCCCN(CCC#N)CCCCCCCC(=O)OC(CCCCCCCC)CCCCCCCC [Compound 21, Heptadecan-9-yl 8-((2-cyanoethyl)(8-(nonyloxy)-8-oxooctyl)amino) octanoate] | 53.5 | −15.1 |  |  |  |  | 
17 | CCCCCCCCCOC(=O)CCCCCCCN(CCO)CCCCCCCC(=O)OC(CCCC)CCCC [Compound 57, nonan-5-yl 8-((2-hydroxyethyl)(8-(nonyloxy)-8-oxooctyl)amino) octanoate] | 128.4 | 94.33 | 9.36E+05 | 3.18E+04 | 2.47E+06 |  | 
18 | CCCCCCCCC(CCCCCCCC)OC(=O)CCCCCCCN(CCO)CCCCCC(=O)OC(C)CCCCCCCCOC(C)=O (stereo not drawn) [Compound 235, Heptadecan-9-yl 8-((6-((10-acetoxydecan-2-yl)oxy)-6-oxohexyl)(2-hydroxyethyl)amino)octanoate] |  |  |  |  |  | 228 | 40.9
19 | CCCCCCCCCOC(=O)CCCCCCCN(CCO)CCCCCCCC(=O)OC(CCC)CCCCCCCC (stereo not drawn) [Compound 34, dodecan-4-yl 8-((2-hydroxyethyl)(8-(nonyloxy)-8-oxooctyl)amino) octanoate] | 133.8 | 92.52 | 2.08E+09 | 9.49E+06 | 2.40E+08 |  | 
20 | CCCCCCCCCOC(=O)CCCCCCCN(CCO)CCCCCCCC(=O)OC(CC)CC [Compound 59, nonyl 8-((2-hydroxyethyl)(8-oxo-8-(pentan-3-yloxy)octyl)amino) octanoate] |  | 94.44 | 2.87E+05 | 4.41E+04 | 9.68E+04 |  | 
